In article PMC3160846 (PLoS ONE, 2011):

Legend:
[1] = test system: HT29 cells; assay: Clonogenic assay, HT29; format: cell-based, Human; conditions: Homo sapiens, HT-29; HT29, colon, p53 mutant, MDR1 negative; read-out: IC50, anti-proliferative activity
Description: (§1) Human lung adenocarcinoma A549 cells and NTUB1 bladder cancer cells were maintained in RPMI supplied with 10% fetal bovine serum. […] KB-derived MRP1-expressing cell line, KB-7D, was maintained in growth medium supplemented with 7 µM VP-16.
(§2) Two hundred cells in logarithmic growth phase were seeded in a 6-well plate. The cells were exposed to various concentrations of the test drugs for a three-generation period. At the end of the incubation period, cells were fixed and stained with 50% ethanol containing 0.5% methylene blue for 30 min. The plates were washed five times with water and allowed to air-dry. Colonies were countered manually. […] Each value represents the average of at least three independent experiments run in triplicates.

[2] = test system: KB cells; assay: Clonogenic assay, KB; format: cell-based, Human; conditions: Homo sapiens, cervical, p53 wild-type, MDR1 negative (parental), read-out: IC50, anti-proliferative activity
Description: as §1, §2

[3] = test system: HCT116 cancer cells; assay: Western blot of phosphor-Aurora kinases and phosphor-Histone H3 in HCT116 cells; format: cell-based
Description: (§3) Cells were lysed with ice-cold lysis buffer (10 mM Tris, 1 mM EDTA, 1 mM DTT, 60 mM KCl, 0.5% NP-40 and protease inhibitors). […] The resolved proteins were electrophoretically transferred to PVDF membranes (Amersham Life Science, Amersham, U.K.) for Western blot analysis. The membranes were blocked with 5% non-fat milk at room temperature for two hours, washed twice with TBST (1% Tween) and then incubated with either anti-phosphorylated Aurora-A/-B/-C kinase antibody (#2914S, Cell Signaling Technology, Danvers, MA), anti-Aurora-A and -B kinase antibody (#ab1287 and #ab2254, Abcam, Cambridge, MA), anti-phosphorylated Histone H3 antibody (#9701, Cell Signaling Technology, Danvers, MA), anti-Histone H3 antibody (#9715, Cell Signaling Technology, Danvers, MA), anti-Cyclin B1 antibody or anti-Actin antibody (#sc-245 and #sc-130065, Santa Cruz Biotechnology, Santa Cruz, CA) overnight at 4°C. Membranes were washed twice with TBST then subsequently incubated with a horseradish peroxidase-conjugated secondary antibody (Santa Cruz Biotechnology, Santa Cruz, CA) for 1 hour at room temperature. Immunoreactivity was detected by Enhanced Chemiluminescence (Amersham International, Buckingham, U.K.) and autoradiography. Experiments were repeated independently at least two times.

[4] = test system: KB-VIN10 cells; assay: Western blot of Histone H3 phosphorylation and cyclin B1, KB-VIN10; format: cell-based, Human; conditions: for Histone H3 phosphorylation and cyclin B1 expression: KB-VIN10, 48 h, BPR1K653 12, 24, 36 nM, VX680 170 and 255 nM
Description: as §3

[5] = test system: KB-VIN10 cells; assay: Apoptosis assays (Annexin-V, caspase-3/-7 imaging, TUNEL, PARP cleavage), KB-VIN10; format: cell-based, Human; conditions: for apoptosis: phosphatidylserine translocation, caspase-3/-7 activity, DNA fragmentation: KB-VIN10, 48-72 h
Description: Cells were lysed with ice-cold lysis buffer (10 mM Tris, 1 mM EDTA, 1 mM DTT, 60 mM KCl, 0.5% NP-40 and protease inhibitors). […] The resolved proteins were electrophoretically transferred to PVDF membranes (Amersham Life Science, Amersham, U.K.) for Western blot analysis. […] Membranes were washed twice with TBST then subsequently incubated with a horseradish peroxidase-conjugated secondary antibody (Santa Cruz Biotechnology, Santa Cruz, CA) for 1 hour at room temperature. Immunoreactivity was detected by Enhanced Chemiluminescence (Amersham International, Buckingham, U.K.) and autoradiography. Experiments were repeated independently at least two times.
The cells were analyzed by fluorescence microscopy.
Briefly, cells were cultured in chamber-slides and incubated with test agents for various durations. […] Cells were viewed with a UV-enabled inverted-microscope at an excitation wavelength of 540 nm–560 nm and emission at 610 nm. Experiments were repeated independently at least two times.
Under in vitro conditions, cells were seeded and cultured in 8-well chamber-slides, and treated with various compounds. The treated cells were washed with PBS, fixed with 4% paraformaldehyde for 30 min on ice, and permeabilized with PBST at room temperature. […] Cells were counterstained with DAPI to detect the nucleus, and examined by fluorescence microscopy. Amount of red fluorescence labeled (DNA fragmented) cells were counted and percentage of apoptotic cells were calculated as follows: Amount of the red fluorescence labeled cells ÷ Total cells available×100. Experiments were repeated independently at least two times.

[6] = test system: human cervical carcinoma KB xenografts; assay: KB xenograft in nude mice; format: in vivo; conditions: for decrease in tumor volume: day 30, BPR1K653 15 mg/kg or VX680 30 mg/kg i.p.
Description: Under in vivo conditions, tumors were dissected from the euthanized mice and instantly stored under −80°C. Tumor tissue sections were prepared from the use of cryostats (Leica Microsystems, Buffalo Grove, IL), and subsequently fixed with ice-cold methanol. Tissue sections were stained by the TUNEL reagent using Fluorescent (green) In-Situ Apoptosis Detection Kit (catalog number #11684795910, Roche Diagnostic, Mannheim, Germany). Cells were counterstained with DAPI to detect nucleus, and examined by fluorescence microscopy. Amount of green fluorescence labeled (DNA fragmented) cells were counted and percentage of apoptotic cells were calculated as follows: Amount of green fluorescence labeled cells ÷ Total cells available×100. Experiments were repeated independently at least two times.
Male nude mice (5–6-weeks-old) were purchased from the National Laboratory Animal Centre (Taiwan R.O.C.). The animals were s.c. implanted with 5×10^5 KB cells or 1×10^6 KB-VIN10 cells mixed with equal volume of Matrigel (Becton Dickinson) in 0.1 mL at one flank per mouse via a 22-gauge needle. Tumor growth was examined twice a week after implantation, and the volume of tumor mass was measured with an electronic caliper and calculated as 1/2×length×width^2 in mm^3.
BPR1K653 was dissolved completely in a vehicle mixture of DMSO/cremophor/saline (1∶2∶7). Selected dose of BPR1K653 was decided base on the following conditions: 1/2 of the dosage that caused noticeable body weight loss (>10%) in the treated mice during toxicity study. […] The control group (5 mice) was treated with vehicle mixture only. Tumor size and animal body weight were measured every three days after drug treatment. Toxicity was evaluated based on the body weight reduction. At the end of the experiments (tumor size of the control >2000 mm^3), animals were euthanized with carbon dioxide.
Tumors were harvested and instantly stored at −80°C. Frozen cryostat sections were fixed with ice-cold methanol for 10 min. After washing with PBS, endogenous peroxidase was blocked using 3% hydrogen peroxide in TBS for 5 min. Immunostaining process was carried out according to the user's manual of the ABC Peroxidase Staining Kit (Pierce Biotechnology, Rockford, IL). Briefly, the tissues were incubated with a protein-blocking solution for 20 min, and subsequently stained with an anti-phosphorylated Histone H3 (Ser10) polyclonal antibody for 1 hour at room temperature. Then, the samples were incubated with the ABC reagent for 30 min, and subsequently incubated with the metal enhanced DAB substrate. The sections were counterstained with hematoxylin.

SMILES	IC50 [1]	IC50 [2]	phosphor-Aurora-A, -B and -C kinase [3]	phosphor-Histone H3 (Ser10) [3]	Histone H3 phosphorylation and cyclin B1 expression [4]	cleavage of PARP ([5]; KB-VIN10, 2× IC50 of KB, 72 h, Western blot)	apoptosis: phosphatidylserine translocation, caspase-3/-7 activity, DNA fragmentation [5]	phosphor-Histone H3 positive cells present in tumor tissues ([6]; 15 mg/kg i.p., 24 h after second administration, control 60%)	loss of body weight after treatment ([6]; 15 mg/kg i.p., 5 days/week for 2 weeks, vs control group)	apoptotic cells present in the tumor tissue (TUNEL) ([6]; 15 mg/kg i.p., 12 days post-treatment, control 7%)	decrease in tumor volume ([6]; 5 days/week for 2 weeks)	Histone H3 phosphorylation and cyclin B1 expression, with verapamil ([4]; KB-VIN10, + verapamil 10 µM)
CN(C)Cc1ccccc1NC(=O)Nc1ccc(CCNc2ncnc3oc(-c4ccccc4)c(Cl)c23)cc1 [BPR1K653]	12 ± 2 nM	12 ± 4 nM	concentration-dependent decrease	concentration-dependent decrease	inhibition of Histone H3 phosphorylation and down-regulation of cyclin B1 expression	cleavage of PARP was only shown	induced the caspase-3/-7 activity and DNA fragmentation	10%	less than 10%	55%	~73%	
Cc1cc(Nc2cc(N3CCN(C)CC3)nc(Sc3ccc(NC(=O)C4CC4)cc3)n2)[nH]n1 [VX680]	160 ± 33 nM	85 ± 31 nM	reduced in a concentration-dependent manner	reduced the amount of phosphor-Histone H3 (Ser10)	could not induce the above molecular changes		not in the MDR1-expressing KB-VIN10 cells				~68%	restore the sensitivity to VX680
